# Measured values published in patent US20260042755A1, “GPR6 INVERSE AGONISTS” (MapLight Therapeutics, Inc., priority 2022, published 2026).
# Key:
# GPR6 = biological target: T1, GPR6 (Homo sapiens, UniProt P46095); experiment: GPR6 antagonist functional cAMP assay (LANCE Ultra cAMP TR-FRET, CHO cells stably expressing GPR6); format: cell-based
# T1 construct: expressed in transfected cells; host or cells: CHO cells
# Procedure, shortened: (§1)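 Cells in Krebs-Ringer buffer with 0.1% BSA and 150 μM Ro 20-1724 PDE inhibitor were exposed to compounds for 45 min at 37 °C (0.1% DMSO). cAMP was read by TR-FRET at 665 nm; IC50s came from 4-parameter fits normalized to DMSO and reference compound.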
# GPR3 = biological target: T2, GPR3 (Homo sapiens, UniProt P46089); experiment: GPR3 antagonist functional cAMP assay (LANCE Ultra cAMP TR-FRET, CHO cells stably expressing GPR3); format: cell-based
# T2 construct: expressed in transfected cells; host or cells: CHO cells
# T2 sequence (P46089 whole entry, species assumed): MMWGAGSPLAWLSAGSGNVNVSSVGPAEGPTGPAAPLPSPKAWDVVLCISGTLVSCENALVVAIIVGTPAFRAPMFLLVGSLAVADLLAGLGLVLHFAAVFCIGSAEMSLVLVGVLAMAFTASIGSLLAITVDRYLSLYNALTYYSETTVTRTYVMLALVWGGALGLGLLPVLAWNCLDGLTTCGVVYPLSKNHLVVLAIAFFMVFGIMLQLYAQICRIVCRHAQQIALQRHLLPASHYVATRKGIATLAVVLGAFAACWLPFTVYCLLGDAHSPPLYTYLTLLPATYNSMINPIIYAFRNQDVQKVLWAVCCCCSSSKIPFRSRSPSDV
# Procedure, shortened: as §1
# [1] = CHO cells stably expressing GPR6, cAMP assay (Example 24)
# [2] = CHO cells stably expressing GPR3, cAMP assay (Example 24)
# [3] = CHO cells stably expressing GPR6, cAMP assay
# [4] = CHO cells stably expressing GPR3, cAMP assay
# [5] = procedure as described in Example 24
# T1 sequence (P46095 whole entry): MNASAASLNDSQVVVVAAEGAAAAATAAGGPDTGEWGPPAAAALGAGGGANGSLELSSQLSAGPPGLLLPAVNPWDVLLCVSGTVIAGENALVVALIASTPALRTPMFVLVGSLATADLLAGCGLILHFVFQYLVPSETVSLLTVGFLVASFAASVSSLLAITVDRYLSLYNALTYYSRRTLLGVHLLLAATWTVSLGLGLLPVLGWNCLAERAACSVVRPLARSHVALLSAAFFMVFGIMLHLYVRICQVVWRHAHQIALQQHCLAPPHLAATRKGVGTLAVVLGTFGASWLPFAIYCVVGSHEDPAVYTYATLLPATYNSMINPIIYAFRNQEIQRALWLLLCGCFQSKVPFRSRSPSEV
structure (smiles),measurement,setting,value
"CC(=O)N1CCc2nc(N3CCC(Oc4ccc(F)cc4F)CC3)c(-c3cncc(OC(F)F)n3)nc2C1 [Compound 239, 1-{3-[6-(difluoromethoxy)pyrazin-2-yl]-2-[4-(2,4-difluorophenoxy)piperidin-1-yl]-5H,6H,7H,8H-pyrido[3,4-b]pyrazin-6-yl}ethan-1-one]",IC50,GPR6; [1],1000 to 30000 nM
same,IC50,GPR3; [2],1000 to 30000 nM
"Cn1cc(-c2nc3cc(C(C)(O)CO)ncc3nc2N2CCC(Oc3ccc(F)cc3F)CC2)cn1 (centres unmarked) [Compound 645, 2-{3-[4-(2,4-difluorophenoxy)-1-piperidyl]-2-(1-methyl-4-pyrazolyl)-1,4,6-triaza-7-naphthyl}-1,2-propanediol]",IC50,GPR6; procedure of Example 24,100 to 1000 nM
same,IC50,GPR3; procedure of Example 24,1000 to 30000 nM
"C=CC(=O)N1CCc2nc(N3CCC(Oc4ccc(F)cc4F)CC3)c(-c3ccc(F)c(N)n3)nc2C1 [Compound 626, 1-{3-(6-amino-5-fluoro-2-pyridyl)-2-[4-(2,4-difluorophenoxy)-1-piperidyl]-5,6,7,8-tetrahydro-1,4,6-triaza-6-naphthyl}-2-propen-1-one]",IC50,GPR6; procedure of Example 24,< 100 nM
same,IC50,GPR3; procedure of Example 24,1000 to 30000 nM
"CC(C)(O)C(O)c1cc2nc(-c3cnn(CF)c3)c(N3CCC(Oc4ccc(F)cc4F)CC3)nc2cn1 (single isomer, unassigned) [Compound 592]",IC50,GPR6; [3],< 100 nM
same,IC50,GPR3; [4],100 to 1000 nM
"COc1cccnc1-c1nc2c(nc1N1CCC(Oc3ccc(F)cc3F)CC1)CCN(C(C)=O)C2 [Compound 80, 1-{2-[4-(2,4-difluorophenoxy)piperidin-1-yl]-3-(3-methoxypyridin-2-yl)-5H,6H,7H,8H-pyrido[3,4-b]pyrazin-6-yl}ethan-1-one]",IC50,GPR6; [1],≥ 30000 nM
same,IC50,GPR3; [2],1000 to 30000 nM
"Cn1cc(-c2nc3cnccc3nc2N2CCN(Cc3ccc(F)cc3F)C(=O)C2)cn1 [Compound 127, 1-[(2,4-difluorophenyl)methyl]-4-[3-(1-methyl-1H-pyrazol-4-yl)pyrido[3,4-b]pyrazin-2-yl]piperazin-2-one]",IC50,GPR6; [1],≥ 30000 nM
same,IC50,GPR3; [2],≥ 30000 nM
"CC(C)(O)C(C)(O)c1cc2nc(N3CCN(Cc4ccc(F)cc4F)CC3)c(-c3cnn(CF)c3)nc2cn1 (centres unmarked) [Compound 607, 2-(2-{4-[(2,4-difluorophenyl)methyl]-1-piperazinyl}-3-[1-(fluoromethyl)-4-pyrazolyl]-1,4,6-triaza-7-naphthyl)-3-methyl-2,3-butanediol]",IC50,GPR6; [3],100 to 1000 nM
same,IC50,GPR3; [4],1000 to 30000 nM
"CC(=O)N1CCc2nc(N3CCN(C(O)c4cocn4)CC3)c(-c3cnn(C)c3)nc2C1 (centres unmarked) [Compound 523, 1-(2-{4-[hydroxy(1,3-oxazol-4-yl)methyl]-1-piperazinyl}-3-(1-methyl-4-pyrazolyl)-5,6,7,8-tetrahydro-1,4,6-triaza-6-naphthyl)-1-ethanone]",IC50,GPR6; [3],≥ 30000 nM
same,IC50,GPR3; [4],≥ 30000 nM
"CC(=O)N1CCc2nc(N3CCN(Cc4ccccc4Br)CC3)c(-c3cnn(C)c3)nc2C1 [Compound 508, 1-(2-{4-[(o-bromophenyl)methyl]-1-piperazinyl}-3-(1-methyl-4-pyrazolyl)-5,6,7,8-tetrahydro-1,4,6-triaza-6-naphthyl)-1-ethanone]",IC50,GPR6; [3],100 to 1000 nM
same,IC50,GPR3; [4],1000 to 30000 nM
"CC(=O)N1CC=C(c2nc3c(nc2N2CCC(Oc4ccc(F)cc4F)CC2)CCN(C(C)=O)C3)CC1 [Compound 69, 1-(3-(1-acetyl-1,2,3,6-tetrahydropyridin-4-yl)-2-(4-(2,4-difluorophenoxy)piperidin-1-yl)-7,8-dihydropyrido[3,4-b]pyrazin-6(5H)-yl)ethan-1-one]",IC50,GPR6; [1],1000 to 30000 nM
same,IC50,GPR3; [2],1000 to 30000 nM
"CC1CN(c2nc3ccncc3nc2-c2cn[nH]c2)CCN1Cc1ccc(F)cc1F (single isomer, unassigned) [Compound 49, 2-(4-(2,4-difluorobenzyl)-3-methylpiperazin-1-yl)-3-(1H-pyrazol-4-yl)pyrido[3,4-b]pyrazine]",IC50,GPR6; [5],1000 to 30000 nM
same,IC50,GPR3; [5],1000 to 30000 nM
"CC(=O)N1CCc2nc(N3CC(Oc4ccc(F)cc4F)C3)c(-c3cnn(C)c3)nc2C1 [Compound 398, 1-{2-[3-(2,4-difluorophenoxy)azetidin-1-yl]-3-(1-methyl-1H-pyrazol-4-yl)-5H,6H,7H,8H-pyrido[3,4-b]pyrazin-6-yl}ethan-1-one]",IC50,GPR6; [1],1000 to 30000 nM
same,IC50,GPR3; [2],1000 to 30000 nM
"N#Cc1cc2nc(-c3cnn(CF)c3)c(N3CCN(Cc4ccc(F)cc4F)CC3)nc2cn1 [Compound 793, 3-{4-[(2,4-difluorophenyl)methyl]-1-piperazinyl}-2-[1-(fluoromethyl)-4-pyrazolyl]-1,4,6-triaza-7-naphthonitrile]",IC50,GPR6; procedure of Example 24,1000 to 30000 nM
same,IC50,GPR3; procedure of Example 24,1000 to 30000 nM
"CCn1cc(-c2nc3c(nc2N2CCC(Oc4ccc(F)cc4F)CC2)CCN(C[C@H](O)CO)C3)cn1 [Compound 305, (2S)-3-{2-[4-(2,4-difluorophenoxy)piperidin-1-yl]-3-(1-ethyl-1H-pyrazol-4-yl)-5H,6H,7H,8H-pyrido[3,4-b]pyrazin-6-yl}propane-1,2-diol]",IC50,GPR6; procedure of Example 24,100 to 1000 nM
same,IC50,GPR3; procedure of Example 24,1000 to 30000 nM
"COc1cccc(-c2nc3cnccc3nc2N2CCN(Cc3ccc(S(C)(=O)=O)cc3F)CC2)n1 [Compound 29, 1-[(2-fluoro-4-methanesulfonylphenyl)methyl]-4-[3-(6-methoxypyridin-2-yl)pyrido[3,4-b]pyrazin-2-yl]piperazine]",IC50,GPR6; [5],1000 to 30000 nM
same,IC50,GPR3; [5],100 to 1000 nM
"CC(=O)N1CCc2nc(N3CCC4(CC3)CC4c3ccc(F)cc3F)c(-c3cnn(C)c3)nc2C1 (centres unmarked) [Compound 660, 1-(2-(1-(2,4-difluorophenyl)-6-azaspiro[2.5]octan-6-yl)-3-(1-methyl-1H-pyrazol-4-yl)-7,8-dihydropyrido[3,4-b]pyrazin-6(5H)-yl)ethan-1-one]",IC50,GPR6; procedure of Example 24,1000 to 30000 nM
same,IC50,GPR3; procedure of Example 24,1000 to 30000 nM
"CC(=O)N1Cc2nc(-c3cnn(C)c3)c(N3CCC(Oc4ccc(F)cc4F)CC3)nc2CC1CO (centres unmarked) [Compound 490, 1-{2-[4-(2,4-difluorophenoxy)piperidin-1-yl]-7-(hydroxymethyl)-3-(1-methyl-1H-pyrazol-4-yl)-5H,6H,7H,8H-pyrido[3,4-b]pyrazin-6-yl}ethan-1-one]",IC50,GPR6; [3],100 to 1000 nM
same,IC50,GPR3; [4],1000 to 30000 nM
"CCn1ccc(-c2nc3c(nc2N2CCC(Oc4ccc(F)cc4F)CC2)CCN(C(C)=O)C3)n1 [Compound 448, 1-{2-[4-(2,4-difluorophenoxy)piperidin-1-yl]-3-(1-ethyl-1H-pyrazol-3-yl)-5H,6H,7H,8H-pyrido[3,4-b]pyrazin-6-yl}ethan-1-one]",IC50,GPR6; [1],100 to 1000 nM
same,IC50,GPR3; [2],1000 to 30000 nM
"Cn1cc(-c2nc3ccc(C(O)C(C)(C)O)nc3nc2N2CCN(Cc3ccc(F)cc3F)CC2)cn1 (centres unmarked) [Compound 569, 1-(3-{4-[(2,4-difluorophenyl)methyl]-1-piperazinyl}-2-(1-methyl-4-pyrazolyl)-1,4,5-triaza-6-naphthyl)-2-methyl-1,2-propanediol]",IC50,GPR6; [3],1000 to 30000 nM
same,IC50,GPR3; [4],≥ 30000 nM
"CC(C)(O)C(=O)c1cc2nc(N3CCN(Cc4ccccc4F)CC3)c(-c3cnn(C(F)F)c3)nc2cn1 [Compound 618, 1-{3-[1-(difluoromethyl)-4-pyrazolyl]-2-{4-[(o-fluorophenyl)methyl]-1-piperazinyl}-1,4,6-triaza-7-naphthyl}-2-hydroxy-2-methyl-1-propanone]",IC50,GPR6; procedure of Example 24,100 to 1000 nM
same,IC50,GPR3; procedure of Example 24,1000 to 30000 nM
"CCn1cc(-c2nc3c(nc2N2CCC(Oc4cc(Cl)ccc4Cl)CC2)CCN(C(=O)CO)C3)cn1 [Compound 403, 1-{2-[4-(2,5-dichlorophenoxy)piperidin-1-yl]-3-(1-ethyl-1H-pyrazol-4-yl)-5H,6H,7H,8H-pyrido[3,4-b]pyrazin-6-yl}-2-hydroxyethan-1-one]",IC50,GPR6; [1],100 to 1000 nM
same,IC50,GPR3; [2],1000 to 30000 nM
"O=C(CO)N1CCc2nc(N3CCC(Oc4ccc(F)cc4F)CC3)c(-c3cn[nH]c3)nc2C1 [Compound 179, 1-{2-[4-(2,4-difluorophenoxy)piperidin-1-yl]-3-(1H-pyrazol-4-yl)-5H,6H,7H,8H-pyrido[3,4-b]pyrazin-6-yl}-2-hydroxyethan-1-one]",IC50,GPR6; [1],< 100 nM
same,IC50,GPR3; [2],1000 to 30000 nM
"COc1ccnc(-c2nc3c(nc2N2CCC(Oc4ccc(F)cc4F)CC2)CCN(C(C)=O)C3)n1 [Compound 56, 1-{2-[4-(2,4-difluorophenoxy)piperidin-1-yl]-3-(4-methoxypyrimidin-2-yl)-5H,6H,7H,8H-pyrido[3,4-b]pyrazin-6-yl}ethan-1-one]",IC50,GPR6; [1],1000 to 30000 nM
same,IC50,GPR3; [2],100 to 1000 nM
"CC(C)(O)C(=O)c1cc2nc(N3CCN(Cc4ccc(F)cc4F)CC3)c(-c3cnn(CF)c3)nc2cn1 [Compound 568, 1-(2-{4-[(2,4-difluorophenyl)methyl]-1-piperazinyl}-3-[1-(fluoromethyl)-4-pyrazolyl]-1,4,6-triaza-7-naphthyl)-2-hydroxy-2-methyl-1-propanone]",IC50,GPR6; [3],100 to 1000 nM
same,IC50,GPR3; [4],1000 to 30000 nM
"OCCOc1cc2nc(-c3cnn(CF)c3)c(N3CCN(Cc4ccc(F)cc4F)CC3)nc2cn1 [Compound 760, 2-(3-{4-[(2,4-difluorophenyl)methyl]-1-piperazinyl}-2-[1-(fluoromethyl)-4-pyrazolyl]-1,4,6-triaza-7-naphthyloxy)ethanol]",IC50,GPR6; procedure of Example 24,100 to 1000 nM
same,IC50,GPR3; procedure of Example 24,100 to 1000 nM
"CC(=O)N1CCc2nc(-c3cn[nH]c3)c(N3CCC(Oc4ccc(F)cc4F)CC3)nc2C1 [Compound 115, 1-{3-[4-(2,4-difluorophenoxy)piperidin-1-yl]-2-(1H-pyrazol-4-yl)-5H,6H,7H,8H-pyrido[3,4-b]pyrazin-6-yl}ethan-1-one]",IC50,GPR6; [1],100 to 1000 nM
same,IC50,GPR3; [2],1000 to 30000 nM
"CC(=O)N1CCc2nc(N3CCN(Cc4ccncc4)CC3)c(-c3cnn(C)c3)nc2C1 [Compound 518, 1-[3-(1-methyl-4-pyrazolyl)-2-{4-[(4-pyridyl)methyl]-1-piperazinyl}-5,6,7,8-tetrahydro-1,4,6-triaza-6-naphthyl]-1-ethanone]",IC50,GPR6; [3],1000 to 30000 nM
same,IC50,GPR3; [4],1000 to 30000 nM
"CC(=O)N1CCc2nc(N3CCC(Oc4ccc(F)cc4F)CC3)c(-c3cccc(C(F)(F)F)n3)nc2C1 [Compound 50, 1-{2-[4-(2,4-difluorophenoxy)piperidin-1-yl]-3-[6-(trifluoromethyl)pyridin-2-yl]-5H,6H,7H,8H-pyrido[3,4-b]pyrazin-6-yl}ethan-1-one]",IC50,GPR6; [5],100 to 1000 nM
same,IC50,GPR3; [5],1000 to 30000 nM
